Measurements from patent EP2812315B1, “PYRROLIC DERIVATIVES, PROCESSES FOR PREPARING THE SAME AND THEIR USES AS A DRUG” (Universite Joseph Fourier, priority 2012, dated 2013).
≈ marks a conversion by molar mass, not a printed value. Where two headings read alike, the source gives them in different places.

How the values were obtained:
Format in all cases: cell-based
[1] = system: Staphylococcus aureus CIP 103428; experiment: MIC determination, microdilution method (CLSI M07-A8); conditions: CIP103428, 5 x 10^5 CFU/mL, 18 hours incubation
Method: (§1) The microdilution method recommended by the Clinical and Laboratory Standard Institute [M07-A8, Vol.29, N°2] was used. The activity of pyrrolic compounds was tested against 29 bacterial strains belonging to 17 different species and 12 different genera (Staphylococcus, Streptococcus, Enterococcus, […], Bacillus, Haetttophilus, Escherichia, Klebsiella, Enterobacter, Serratia, Pseudomonas, and Acinetobacter). Bacterial inocula were prepared in Mueller Hinton broth (MH2, bioMérieux, Marcy L'Etoile, France), supplemented with 10% sheep blood for fastidious species (i.e., Streptococcus pneumoniae and Haemophilus influenzae). They were dispensed in 96 well microtiter plates (5 x 10^5 CFU/mL of final inoculum). Pyrrolic compounds were added to the wells as to obtain two-fold serial concentrations (0.25-64 mg/L). Plates were incubated at 37°C, in 5% CO2 enriched atmosphere for fastidious species only. MICs were read after 18 hours incubation of cultures, and corresponded to the minimum pyrrolic compound concentration that allowed complete visual growth inhibition of bacteria. Drug-free cultures served as growth controls. Cultures receiving gentamicine, ciprofloxacine or cefotaxime served as positive controls.

[2] = system: Pseudomonas aeruginosa CIP 5933; experiment: as above
Method: as §1

[3] = system: Staphylococcus aureus ATCC 33592 (MRSA); experiment: as above; conditions: 5 x 10^5 CFU/mL, 18 hours incubation
Method: as §1

[4] = system: Listeria innocua CIP 80.11; experiment: as above; conditions: CIP80, 18 hours incubation
Method: as §1

[5] = system: Streptococcus pyogenes (group A) CIP 104226; experiment: as above; conditions: CIP104226, 18 hours incubation
Method: as §1

[6] = system: Escherichia coli ATCC 25922; experiment: as above
Method: as §1

[7] = system: Staphylococcus aureus SA-1199B; experiment: as above; conditions: SA1199B, 18 h
Method: as §1

[8] = system: Acinetobacter baumanii ATCC 19606; experiment: as above; conditions: Acinetobacter baumannii
Method: as §1

[9] = system: Enterococcus faecium CIP 54.32; experiment: as above; conditions: CIP54, 18 hours incubation
Method: as §1

[10] = system: Klebsiella pneumoniae ATCC 35657; experiment: as above
Method: as §1

[11] = system: Staphylococcus aureus ATCC 6538; experiment: as above; conditions: ATCC6538, 5 x 10^5 CFU/mL, 18 hours incubation
Method: as §1

[12] = system: Haemophilus influenzae ATCC 49766; experiment: as above; conditions: ATCC49766, 10% sheep blood, 5% CO2, 18 hours incubation
Method: as §1

[13] = system: Staphylococcus epidermidis CIP 103627; experiment: as above; conditions: CIP103627, 5 x 10^5 CFU/mL, 18 hours incubation
Method: as §1

[14] = system: Streptococcus pneumoniae ATCC 49619; experiment: as above; conditions: ATCC49619, 10% sheep blood, 5% CO2, 18 hours incubation
Method: as §1

[15] = system: Staphylococcus aureus ATCC 25923; experiment: as above
Method: as §1

[16] = system: Staphylococcus aureus ATCC 9144; experiment: as above; conditions: ATCC9144, 5 x 10^5 CFU/mL, 18 hours incubation
Method: as §1

[17] = system: Serratia marcescens CIP 103551; experiment: as above
Method: as §1

[18] = system: Staphylococcus epidermidis ATCC 12228; experiment: as above
Method: as §1

[19] = system: Streptococcus mitis CIP 103335; experiment: as above; conditions: CIP103335, 18 hours incubation
Method: as §1

[20] = system: Streptococcus agalactiae (group B) ATCC 12400; experiment: as above; conditions: ATCC12400, 18 hours incubation
Method: as §1

[21] = system: Streptococcus pneumoniae ATCC 6303; experiment: as above; conditions: ATCC6303, 10% sheep blood, 5% CO2, 18 hours incubation
Method: as §1

[22] = system: Enterobacter cloacae ATCC13047; experiment: as above
Method: as §1

[23] = system: Staphylococcus aureus ATCC 29213; experiment: as above
Method: as §1

[24] = system: Staphylococcus epidermidis CIP 81.55; experiment: as above; conditions: CIP81, 5 x 10^5 CFU/mL, 18 hours incubation
Method: as §1

[25] = system: Staphylococcus aureus CIP 65.25 (MRSA); experiment: as above; conditions: 5 x 10^5 CFU/mL, 18 hours incubation
Method: as §1

[26] = system: Bacillus subtilis CIP 5262; experiment: as above; conditions: CIP5262, 18 hours incubation
Method: as §1

[27] = system: Enterococcus faecalis ATCC 29212; experiment: as above; conditions: ATCC29212, 18 hours incubation
Method: as §1

[28] = system: Staphylococcus aureus CIP 65.6; experiment: as above; conditions: CIP65, 5 x 10^5 CFU/mL, 18 hours incubation
Method: as §1

[29] = system: Staphylococcus aureus ATCC 106414 (VISA); experiment: as above; conditions: 5 x 10^5 CFU/mL, 18 hours incubation
Method: as §1

[30] = system: HCT116 (human colon tumor); experiment: In vitro cytotoxicity; conditions: HCT-116, 10^-5 M in DMSO, triplicate, read-out: % of cellular growth inhibition
Method: (§2) In vitro cytotoxicity was assayed on three cell lines - KB (human mouth carcinoma), MCR5 (human lung fibroblast) and HCT116 (human colon tumor). Results are presented in table III as % of cellular growth inhibition in presence of 10^-5 M and 10^-6 M of the tested bis-pyrrolic derivatives in DMSO (triplicate).

[31] = system: KB (human mouth carcinoma); experiment: In vitro cytotoxicity; conditions: 10^-5 M in DMSO, triplicate, read-out: % of cellular growth inhibition
Method: as §2

MRC5 = experiment: In vitro cytotoxicity; conditions: MRC5 (human lung fibroblast); 10^-5 M in DMSO; triplicate; read-out: % of cellular growth inhibition
Method: as §2

[32] = CIP5933, Pseudomonas aeruginosa CIP 5933, 18 hours incubation, read-out: MIC
[33] = ATCC25922, Escherichia coli ATCC 25922, 18 hours incubation, read-out: MIC
[34] = ATCC19606, Acinetobacter baumanii ATCC 19606, 18 hours incubation, read-out: MIC
[35] = ATCC35657, Klebsiella pneumoniae ATCC 35657, 18 hours incubation, read-out: MIC
[36] = ATCC25923, Staphylococcus aureus ATCC 25923, 5 x 10^5 CFU/mL, 18 hours incubation, read-out: MIC
[37] = CIP103551, Serratia marcescens CIP 103551, 18 hours incubation, read-out: MIC
[38] = ATCC12228, Staphylococcus epidermidis ATCC 12228, 5 x 10^5 CFU/mL, 18 hours incubation, read-out: MIC
[39] = Enterobacter cloacae ATCC13047, 18 hours incubation, read-out: MIC
[40] = ATCC29213, Staphylococcus aureus ATCC 29213, 5 x 10^5 CFU/mL, 18 hours incubation, read-out: MIC

| Structure (SMILES) | MIC [1] [µg/mL] | MIC [2, 32] [µg/mL] | MIC [3] [µg/mL] | MIC [6, 33] [µg/mL] | MIC [8, 34] [µg/mL] | MIC [10, 35] [µg/mL] | MIC [11] [µg/mL] | MIC [13] [µg/mL] | MIC [15, 36] [µg/mL] | MIC [16] [µg/mL] | MIC [17, 37] [µg/mL] | MIC [18, 38] [µg/mL] | MIC [22, 39] [µg/mL] | MIC [23, 40] [µg/mL] | MIC [24] [µg/mL] | MIC [25] [µg/mL] | MIC [28] [µg/mL] | inhibition at 10 µM [30] [%] | inhibition at 10 µM [31] [%] | inhibition at 10 µM (MRC5) [%] | further results |
| --- | --- | --- | --- | --- | --- | --- | --- | --- | --- | --- | --- | --- | --- | --- | --- | --- | --- | --- | --- | --- | --- |
| CC(=O)c1c(C)[nH]c(C(c2ccccc2)c2[nH]c(C)c(C(C)=O)c2C)c1C [3b] | 4 (≈ 11 µM) | > 128 | 8 (≈ 22.1 µM) | > 128 | > 128 | > 128 | 4 (≈ 11 µM) | > 128 | 4 (≈ 11 µM) | 8 (≈ 22.1 µM) | > 128 | > 128 | > 128 | 4 (≈ 11 µM) | > 128 | 8 (≈ 22.1 µM) | 4 (≈ 11 µM) | 43 | 32 | – | MIC [4]: > 128 µg/mL; MIC [5]: > 128 µg/mL; MIC [7]: 8 µg/mL (≈ 22.1 µM); MIC [9]: > 128 µg/mL; MIC [12]: > 128 µg/mL; MIC [14]: > 128 µg/mL; MIC [19]: > 128 µg/mL; MIC [20]: > 128 µg/mL; MIC [21]: > 128 µg/mL; MIC [26]: > 128 µg/mL; MIC [27]: > 128 µg/mL; MIC [29]: 4 µg/mL (≈ 11 µM) |
| CC(=O)c1c(C)[nH]c(C(c2ccc([N+](=O)[O-])cc2)c2[nH]c(C)c(C(C)=O)c2C)c1C [3d] | > 32 | > 128 | > 32 | > 128 | > 128 | > 128 | > 32 | > 128 | > 32 | > 32 | > 128 | > 128 | > 128 | 8 (≈ 19.6 µM) | > 128 | 8 (≈ 19.6 µM) | 16 (≈ 39.3 µM) | 0 | 0 | 0 | MIC [29]: 8 µg/mL (≈ 19.6 µM) |
| CC(=O)c1c(C)[nH]c(C(c2ccccc2I)c2[nH]c(C)c(C(C)=O)c2C)c1C [3k] | – | > 32 | – | > 32 | > 32 | > 32 | – | – | 8 (≈ 16.4 µM) | – | > 32 | > 128 | > 32 | 4 (≈ 8.19 µM) | – | – | – | 0 | 20 ± 8 | 3 ± 5 | – |
| CC(=O)c1c(C)[nH]c(C(c2ccccc2O)c2[nH]c(C)c(C(C)=O)c2C)c1C [3m] | – | – | – | – | – | – | – | – | – | – | – | – | – | – | – | – | – | 0 | 6 ± 10 | 1 ± 17 | MIC ([2]; Pseudomonas aeruginosa, CIP5933, 18 h): > 32 µg/mL; MIC ([6]; Escherichia coli, ATCC25922, 18 h): > 32 µg/mL; MIC ([8]; ATCC19606, 18 h): > 32 µg/mL; MIC ([10]; Klebsiella pneumoniae, ATCC35657, 18 h): > 32 µg/mL; MIC ([15]; Staphylococcus aureus, ATCC25923, 18 h): 8 µg/mL (≈ 21.1 µM); MIC ([17]; Serratia marcescens, CIP103551, 18 h): > 32 µg/mL; MIC ([18]; Staphylococcus epidermidis, ATCC12228, 18 h): > 128 µg/mL; MIC ([22]; Enterobacter cloacae, ATCC13047, 18 h): > 32 µg/mL; MIC ([23]; Staphylococcus aureus, ATCC29213, 18 h): 4 µg/mL (≈ 10.6 µM) |
| CCC(c1[nH]c(C)c(C(C)=O)c1C)c1[nH]c(C)c(C(C)=O)c1C [3a] | 32 (≈ 102 µM) | > 128 | 16 (≈ 50.9 µM) | > 128 | > 128 | > 128 | 16 (≈ 50.9 µM) | > 128 | 32 (≈ 102 µM) | > 128 | > 128 | > 128 | > 128 | 32 (≈ 102 µM) | > 128 | 16 (≈ 50.9 µM) | 32 (≈ 102 µM) | 41 | 30 | – | MIC [4]: > 128 µg/mL; MIC [5]: > 128 µg/mL; MIC [7]: 32 µg/mL (≈ 102 µM); MIC [9]: > 128 µg/mL; MIC [12]: > 128 µg/mL; MIC [14]: > 128 µg/mL; MIC [19]: > 128 µg/mL; MIC [20]: > 128 µg/mL; MIC [21]: > 128 µg/mL; MIC [26]: > 128 µg/mL; MIC [27]: > 128 µg/mL; MIC [29]: 32 µg/mL (≈ 102 µM) |
| CC(=O)c1c(C)[nH]c(C(c2cccs2)c2[nH]c(C)c(C(C)=O)c2C)c1C [3l] | – | > 32 | – | > 32 | > 32 | > 32 | – | – | 4 (≈ 10.9 µM) | – | > 32 | > 128 | > 32 | 8 (≈ 21.7 µM) | – | – | – | 11 ± 7 | 9 ± 5 | 6 ± 3 | – |
